This passage reports EC50 results from paper PMC5983371 (Experimental eye research, 2018).

In general, EC50 refers to the midpoint of the concentration-response curve.

For this assay, the target named is rhodopsin (light-activated, metarhodopsin II) (Bos taurus, UniProt P02699). As to the kind of experiment: UV/Visible extra Meta II stabilization assay. It counts as binding.
rhodopsin (light-activated, metarhodopsin II), sequence (P02699 whole entry): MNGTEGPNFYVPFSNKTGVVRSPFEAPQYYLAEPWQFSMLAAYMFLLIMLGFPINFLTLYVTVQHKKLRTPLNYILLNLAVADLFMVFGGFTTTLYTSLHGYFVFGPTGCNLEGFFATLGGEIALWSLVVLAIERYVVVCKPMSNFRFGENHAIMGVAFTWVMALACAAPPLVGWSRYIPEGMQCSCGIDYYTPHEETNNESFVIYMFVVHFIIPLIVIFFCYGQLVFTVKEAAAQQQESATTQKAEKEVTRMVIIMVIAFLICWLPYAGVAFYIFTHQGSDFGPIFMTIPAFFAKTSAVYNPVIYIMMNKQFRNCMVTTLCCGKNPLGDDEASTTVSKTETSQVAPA

`C[C@H](CCC(=O)NCCS(=O)(=O)O)[C@H]1CC[C@H]2[C@@H]3[C@@H](O)C[C@@H]4C[C@H](O)CC[C@]4(C)[C@H]3CC[C@]12C` [TUDCA, Tauroursodeoxycholic acid] had an EC50 of 450 µM.
